22 compounds from patent US9421209B2, “Kinase modulators” (Rhizen Pharmaceuticals SA, priority 2009, dated 2016) can be followed below.

Read-outs that look alike come from different tables or passages of the source.

Data set [1] deals with P110β (Homo sapiens, UniProt P42338). The data set can be described thus: Fluorescent (HTRF) determination of PI3K enzyme activity, β isoform. In kind it is biochemical. The source says:
Assay 1: Fluorescent determination of PI3Kinase Kinase enzyme activity
Phosphoinositide 3 kinases (PI3K) belong to a class of lipid kinases that play a critical role in the regulation of several key cellular processes. The PI3K are capable of phosphorylating the 3-hydroxy position of phosphoinositols thereby generating second messengers involved in downstream signalling events. The homogenous time resolved fluorescence (HTRF) assay allows detection of 3,4,5-triphosphate (PIP3) formed as a result of phosphorylation of phosphotidylinositol 4,5-biphosphate (PIP2) by PI3K isoforms such as α, β, γ or δ.
PI3K isoform activity for α, β, γ or δ was determined using a PI3K human HTRF™ Assay Kit (Millipore, Billerica, Mass.) with modifications. All incubations were carried out at room temperature. Briefly, 0.5 μl of 40× inhibitor (in 100% DMSO) or 100% DMSO were added to each well of a 384-well black plate (Greiner Bio-One, Monroe, N.C.) containing 14.5 μl 1× reaction buffer/PIP2 (10 mM MgCl2, 5 mM DTT, 1.38 μM PIP2) mix with or without enzyme and incubated for 10 min. After the initial incubation, 5 μl/well of 400 μM ATP was added and incubated for an additional 30 minutes. Reaction was terminated by adding 5 μl/well stop solution (Millipore, Billerica, Mass.). Five microliters of detection mix (Millipore, Billerica, Mass.) were then added to each well and was incubated for 6-18 h in the dark. HRTF ratio was measured on a microplate reader (BMG Labtech., Germany) at an excitation wavelength of 337 nm and emission wavelengths of 665 and 620 nm with an integration time of […]. Data were analyzed using Graphpad Prism (Graphpad software; San Diego Calif.) for IC50 determination. Percent inhibition was calculated based on the values for the blank and enzyme controls. The results are provided below in Table 2 & 3.

Data set [2] addresses P110 δ/Pi3K δ (Homo sapiens, UniProt O00329). Briefly: Fluorescent (HTRF) determination of PI3K enzyme activity, δ isoform. In kind it is biochemical. The arrangement: inhibition: dose or concentration left out as unconfirmed. The essentials:
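HTRF kit detecting PIP3 formed from PIP2 by human PI3Kδ, at room temperature. Reaction started with 400 μM ATP (addition concentration) for 30 min, then stopped, and detection mix incubated 6–18 h in the dark. Percent inhibition taken against blank and enzyme controls, and IC50 fitted.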
For orientation: Time-resolved FRET reads energy transfer from a long-lived donor to a nearby acceptor.

Chain of P110 δ/Pi3K δ (O00329 whole entry, canonical isoform): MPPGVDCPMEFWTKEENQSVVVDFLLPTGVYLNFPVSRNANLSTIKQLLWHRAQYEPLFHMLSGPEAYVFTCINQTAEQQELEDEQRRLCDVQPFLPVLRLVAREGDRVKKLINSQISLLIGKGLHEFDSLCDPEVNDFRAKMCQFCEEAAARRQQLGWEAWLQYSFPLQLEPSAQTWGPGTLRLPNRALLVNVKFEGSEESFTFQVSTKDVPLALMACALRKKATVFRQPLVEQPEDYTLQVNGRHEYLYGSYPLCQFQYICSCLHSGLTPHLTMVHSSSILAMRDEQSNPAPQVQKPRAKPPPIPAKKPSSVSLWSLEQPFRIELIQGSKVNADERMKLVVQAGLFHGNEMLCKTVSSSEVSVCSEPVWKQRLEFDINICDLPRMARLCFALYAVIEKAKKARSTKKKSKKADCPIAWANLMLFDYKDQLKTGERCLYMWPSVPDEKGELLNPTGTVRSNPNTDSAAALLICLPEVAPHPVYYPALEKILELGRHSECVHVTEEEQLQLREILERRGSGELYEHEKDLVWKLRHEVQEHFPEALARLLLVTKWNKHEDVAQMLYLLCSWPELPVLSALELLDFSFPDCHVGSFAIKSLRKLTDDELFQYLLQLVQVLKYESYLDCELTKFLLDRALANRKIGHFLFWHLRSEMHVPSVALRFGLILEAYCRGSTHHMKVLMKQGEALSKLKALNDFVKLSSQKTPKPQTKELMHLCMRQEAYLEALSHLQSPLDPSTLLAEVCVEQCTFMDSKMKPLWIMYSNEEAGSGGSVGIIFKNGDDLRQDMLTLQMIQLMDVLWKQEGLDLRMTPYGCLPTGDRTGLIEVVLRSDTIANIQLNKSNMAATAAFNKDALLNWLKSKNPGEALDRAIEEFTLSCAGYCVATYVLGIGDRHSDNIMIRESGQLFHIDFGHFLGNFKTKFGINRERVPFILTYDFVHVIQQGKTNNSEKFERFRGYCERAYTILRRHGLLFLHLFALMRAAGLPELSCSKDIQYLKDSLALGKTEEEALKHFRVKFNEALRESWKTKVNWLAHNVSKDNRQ
Chain of P110 δ/Pi3K δ (P27986 whole entry partner, canonical isoform): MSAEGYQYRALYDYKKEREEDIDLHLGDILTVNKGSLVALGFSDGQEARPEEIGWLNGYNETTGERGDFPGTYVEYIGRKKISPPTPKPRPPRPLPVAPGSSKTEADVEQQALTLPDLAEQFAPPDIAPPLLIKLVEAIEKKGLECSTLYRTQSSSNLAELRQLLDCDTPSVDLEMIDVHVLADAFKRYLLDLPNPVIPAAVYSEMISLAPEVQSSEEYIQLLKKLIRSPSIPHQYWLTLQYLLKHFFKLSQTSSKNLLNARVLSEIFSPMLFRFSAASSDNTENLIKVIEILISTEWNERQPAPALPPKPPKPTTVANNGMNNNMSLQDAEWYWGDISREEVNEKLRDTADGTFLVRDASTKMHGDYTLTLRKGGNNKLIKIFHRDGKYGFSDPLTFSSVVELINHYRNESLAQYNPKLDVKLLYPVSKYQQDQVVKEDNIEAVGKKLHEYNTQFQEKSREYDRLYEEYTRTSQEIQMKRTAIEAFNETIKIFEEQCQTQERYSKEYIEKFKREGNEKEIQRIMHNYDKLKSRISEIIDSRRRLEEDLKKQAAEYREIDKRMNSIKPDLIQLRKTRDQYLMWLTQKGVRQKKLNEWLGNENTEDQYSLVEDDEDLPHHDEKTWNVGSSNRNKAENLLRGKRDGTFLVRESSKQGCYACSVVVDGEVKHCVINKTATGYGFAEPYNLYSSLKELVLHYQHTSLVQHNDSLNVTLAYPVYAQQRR
Chain of P110β (P42338 whole entry, canonical isoform): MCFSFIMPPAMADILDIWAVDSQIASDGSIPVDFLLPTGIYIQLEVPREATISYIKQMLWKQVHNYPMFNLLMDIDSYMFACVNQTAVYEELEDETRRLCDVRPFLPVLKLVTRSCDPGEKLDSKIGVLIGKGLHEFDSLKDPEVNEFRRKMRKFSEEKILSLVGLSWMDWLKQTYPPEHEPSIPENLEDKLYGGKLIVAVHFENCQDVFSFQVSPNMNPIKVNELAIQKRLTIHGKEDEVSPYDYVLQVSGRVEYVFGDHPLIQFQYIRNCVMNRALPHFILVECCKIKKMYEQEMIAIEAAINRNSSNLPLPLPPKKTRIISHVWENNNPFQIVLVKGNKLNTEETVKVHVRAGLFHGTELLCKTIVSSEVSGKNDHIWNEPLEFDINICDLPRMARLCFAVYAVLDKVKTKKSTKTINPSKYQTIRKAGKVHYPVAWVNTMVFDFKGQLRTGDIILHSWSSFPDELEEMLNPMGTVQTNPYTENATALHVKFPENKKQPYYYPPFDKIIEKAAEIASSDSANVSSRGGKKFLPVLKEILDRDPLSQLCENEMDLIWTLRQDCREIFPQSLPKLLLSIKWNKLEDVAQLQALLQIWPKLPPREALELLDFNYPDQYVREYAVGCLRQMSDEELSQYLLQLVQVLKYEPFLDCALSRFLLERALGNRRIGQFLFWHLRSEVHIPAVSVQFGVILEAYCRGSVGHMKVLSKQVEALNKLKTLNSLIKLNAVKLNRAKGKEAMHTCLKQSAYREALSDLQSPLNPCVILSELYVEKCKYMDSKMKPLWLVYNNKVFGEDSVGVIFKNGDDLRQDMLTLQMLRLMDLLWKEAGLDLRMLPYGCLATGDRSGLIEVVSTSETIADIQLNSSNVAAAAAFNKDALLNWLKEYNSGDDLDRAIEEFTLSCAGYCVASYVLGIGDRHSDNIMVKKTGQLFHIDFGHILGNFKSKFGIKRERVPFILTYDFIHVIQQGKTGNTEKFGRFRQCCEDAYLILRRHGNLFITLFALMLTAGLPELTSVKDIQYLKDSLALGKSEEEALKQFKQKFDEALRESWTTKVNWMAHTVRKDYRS
Chain of P110β (P27986 whole entry partner, canonical isoform): as the sequence (P27986 whole entry partner, canonical isoform) above

As a reminder, the inhibition is how much of the control response was suppressed. A word on the melting point: it is the temperature of the solid-liquid transition. As to `CCOc1cccc(-c2nn(C(C)c3oc4ccccc4c(=O)c3-c3cccc(F)c3)c3ncnc(N)c23)c1` (centres unmarked) [Example 150, 2-(1-(4-amino-3-(3-ethoxyphenyl)-1H-pyrazolo[3,4-d]pyrimidin-1-yl)ethyl)-3-(3-fluorophenyl)-4H-chromen-4-one], the melting point was in the range of 162 to 165 °C. The same compound registered an inhibition at 1 µM in data set [1] of 25 to 50%. The compound also showed an inhibition in data set [2] of under 50%.

As to `Cc1c[nH]c2cc(-c3nn(C(C)c4oc5ccccc5c(=O)c4-c4cccc(F)c4)c4ncnc(N)c34)ccc12` (centres unmarked) [Example 117, 2-(1-(4-amino-3-(3-methyl-1H-indol-6-yl)-1H-pyrazolo[3,4-d]pyrimidin-1-yl)ethyl)-3-(3-fluorophenyl)-4H-chromen-4-one], the melting point lay in the range of 262 to 265 °C. Further, the “% inhibition (1 μM) P110β” value in data set [1] is recorded as “+ (+ is less than equal to 25% inhibition at 1 μM)”. In data set [2] (@ 0.3 uM), the “P110 δ/ Pi3K δ % inhibition*” value is given as “++ (++ is less than equal to 100% inhibition but more than equal to 50% at 1 μM)”.

With `CC(c1oc2ccccc2c(=O)c1-c1cccc(F)c1)n1nc(-c2ccc(Cl)s2)c2c(N)ncnc21` (centres unmarked) [Example 152, 2-(1-(4-amino-3-(5-chlorothiophen-2-yl)-1H-pyrazolo[3,4-d]pyrimidin-1-yl)ethyl)-3-(3-fluorophenyl)-4H-chromen-4-one], the melting point lay within 226 to 229 °C. Also, the inhibition at 1 µM in data set [1] was under 25%. The compound also gave an inhibition in data set [2] of under 50%.

Regarding `CC(c1oc2ccccc2c(=O)c1-c1cccc(F)c1)n1nc(-c2ccc(OC(F)(F)F)cc2)c2c(N)ncnc21` (centres unmarked) [Example 145, 2-(1-(4-amino-3-(4-(trifluoromethoxy)phenyl)-1H-pyrazolo[3,4-d]pyrimidin-1-yl)ethyl)-3-(3-fluorophenyl)-4H-chromen-4-one], the melting point lay in the range of 224 to 226 °C. The compound also gave an inhibition at 1 µM in data set [1] of 25 to 50%. In data set [2], this compound came in with an inhibition of under 50%.

`Cc1cc(-c2nn(C(C)c3oc4ccccc4c(=O)c3-c3cccc(F)c3)c3ncnc(N)c23)ccn1` (centres unmarked) [Example 135, 2-(1-(4-amino-3-(2-methylpyridin-4-yl)-1H-pyrazolo[3,4-d]pyrimidin-1-yl)ethyl)-3-(3-fluorophenyl)-4H-chromen-4-one] returned a melting point of 266 to 268 °C. In data set [1], this compound gave an inhibition at 1 µM of 25 to 50%. The inhibition in data set [2] was under 50%.

As for `CC(C)Oc1ccc(-c2nn(C(C)c3oc4ccccc4c(=O)c3-c3cccc(F)c3)c3ncnc(N)c23)cc1` (centres unmarked) [Example 144, 2-(1-(4-amino-3-(4-isopropoxyphenyl)-1H-pyrazolo[3,4-d]pyrimidin-1-yl)ethyl)-3-(3-fluorophenyl)-4H-chromen-4-one], the melting point was 224 to 226 °C. For the same compound, the inhibition at 1 µM in data set [1] was 50 to 100%. The inhibition in data set [2] was 50 to 100%. Further, the IC50 in data set [2] (read-out: P110 δ/ Pi3K δ IC 50 nM) is under 250 nM.

Take `COc1c(F)cc(-c2nn(Cc3oc4ccc(F)cc4c(=O)c3-c3cccc(F)c3)c3ncnc(N)c23)cc1F` [Example 127, 2-((4-amino-3-(3,5-difluoro-4-methoxyphenyl)-1H-pyrazolo[3,4-d]pyrimidin-1-yl)methyl)-6-fluoro-3-(3-fluorophenyl)-4H-chromen-4-one]: the inhibition at 1 µM in data set [1] fell in the range of 50 to 100%.

For `CCOc1ccc(-c2nn(C(C)c3oc4ccccc4c(=O)c3-c3cccc(F)c3)c3ncnc(N)c23)cc1` (centres unmarked) [Example 156, 2-(1-(4-amino-3-(4-ethoxyphenyl)-1H-pyrazolo[3,4-d]pyrimidin-1-yl)ethyl)-3-(3-fluorophenyl)-4H-chromen-4-one], the melting point fell in the range of 229 to 232 °C. Also, the inhibition at 1 µM in data set [1] was in the range of 25 to 50%. In addition, the inhibition in data set [2] is under 50%.

`CC(c1oc2ccccc2c(=O)c1-c1cccc(F)c1)n1nc(-c2cccc3c2oc2ccccc23)c2c(N)ncnc21` (centres unmarked) [Example 138, 2-(1-(4-amino-3-(dibenzo[b,d]furan-4-yl)-1H-pyrazolo[3,4-d]pyrimidin-1-yl)ethyl)-3-(3-fluorophenyl)-4H-chromen-4-one] yielded a melting point of 238 to 240 °C. The same compound had an inhibition at 1 µM in data set [1] of 25 to 50%.

As for `O=c1c(-c2ccc(F)cc2)c(CN2CCOCC2)oc2ccc(Br)cc12` [Example 17, 6-Bromo-3-(4-fluorophenyl)-2-(morpholinomethyl)-4H-chromen-4-one], the inhibition at 1 µM in data set [1] is under 25%.

Regarding `Nc1ncnc2c1c(CCCO)nn2Cc1oc2ccccc2c(=O)c1-c1ccccc1` [Example 64, 2-((4-amino-3-(3-hydroxypropyl)-1H-pyrazolo[3,4-d]pyrimidin-1-yl)methyl)-3-phenyl-4H-chromen-4-one], the melting point fell in the range of 182 to 184 °C. This compound also gave an inhibition at 1 µM in data set [2] of under 50%.

`COc1c(F)cc(-c2nn(C(C)c3oc4ccccc4c(=O)c3-c3cccc(F)c3)c3ncnc(N)c23)cc1F` (centres unmarked) [Example 126, 2-(1-(4-amino-3-(3,5-difluoro-4-methoxyphenyl)-1H-pyrazolo[3,4-d]pyrimidin-1-yl)ethyl)-3-(3-fluorophenyl)-4H-chromen-4-one] yielded an inhibition at 1 µM in data set [1] of under 25%.

Turning to `Cc1c[nH]c2ccc(-c3nn(C(C)c4oc5ccccc5c(=O)c4-c4cccc(F)c4)c4ncnc(N)c34)cc12` (centres unmarked) [Example 101, 2-(1-(4-Amino-3-(3-methyl-1H-indol-5-yl)-1H-pyrazolo[3,4-d]pyrimidin-1-yl)ethyl)-3-(3-fluorophenyl)-4H-chromen-4-one], the melting point is 171 to 173 °C. The same compound yielded an inhibition in data set [2] of under 50%.

For `COc1cccc(-c2nn(C(C)c3oc4ccccc4c(=O)c3-c3ccccc3)c3ncnc(N)c23)c1` (centres unmarked) [Example 41, 2-(1-(4-Amino-3-(3-methoxyphenyl)-1H-pyrazolo[3,4-d]pyrimidin-1-yl)ethyl)-3-phenyl-4H-chromen-4-one], the melting point was in the range of 176 to 178 °C. This compound showed an inhibition at 1 µM in data set [2] of 50 to 100%.

Turning to `Nc1ncnc2c1ncn2Cc1oc2ccccc2c(=O)c1-c1ccccc1F` [Example 33, 2-((6-Amino-9H-purin-9-yl)methyl)-3-(2-fluorophenyl)-4H-chromen-4-one], the melting point lay within 202 to 205 °C. This compound displayed an inhibition at 1 µM in data set [2] of under 50%.

The compound `O=c1c(-c2cccc(F)c2)c(CNc2ncnc3[nH]cnc23)oc2ccccc12` [Example 46, 2-((9H-purin-6-ylamino)methyl)-3-(3-fluorophenyl)-4H-chromen-4-one] gave a melting point of 211 to 214 °C. The inhibition at 1 µM in data set [2] is under 50%.

As to `Nc1ncnc2c1c(-c1cccnc1)nn2Cc1oc2ccccc2c(=O)c1-c1ccccc1` [Example 58, 2-((4-amino-3-(pyridin-3-yl)-1H-pyrazolo[3,4-d]pyrimidin-1-yl)methyl)-3-phenyl-4H-chromen-4-one], the melting point lay within 253 to 255 °C. In data set [2], this compound showed an inhibition at 1 µM of under 50%.

For the compound `CC(c1oc2ccccc2c(=O)c1-c1cccc(F)c1)n1nc(-c2ccc3[nH]ccc3c2)c2c(N)ncnc21` (centres unmarked) [Example 100, 2-(1-(4-amino-3-(1H-indol-5-yl)-1H-pyrazolo[3,4-d]pyrimidin-1-yl)ethyl)-3-(3-fluorophenyl)-4H-chromen-4-one], the melting point was 197 to 199 °C. Moreover, the inhibition in data set [2] lay in the range of 50 to 100%.

In turn, `Nc1ncnc2c1c(-c1cn[nH]c1)nn2Cc1oc2ccccc2c(=O)c1-c1ccccc1` [Example 60, 2-((4-amino-3-(1H-pyrazol-4-yl)-1H-pyrazolo[3,4-d]pyrimidin-1-yl)methyl)-3-phenyl-4H-chromen-4-one] yielded a melting point of 235 to 237 °C. For the same compound, in data set [2], the inhibition at 1 µM is 50 to 100%. Also, the IC50 in data set [2] (read-out: P110 δ/Pi3K δ IC 50 nM) is under 250 nM.

`O=c1c(-c2ccccc2)c(Cn2cnc3ccccc32)oc2ccccc12` [Example 7, 2-[(1H-benzo[d]imidazol-1-yl)methyl]-3-phenyl-4H-chromen-4-one] came in with a melting point of 186 to 191 °C. In addition, the inhibition at 1 µM in data set [2] is under 50%.

In turn, `Nc1ncnc2c1c(-c1cc(O)cc(F)c1)nn2Cc1oc2ccc(F)cc2c(=O)c1-c1cccc(F)c1` [Example 120a, 2-((4-amino-3-(3-fluoro-5-hydroxyphenyl)-1H-pyrazolo[3,4-d]pyrimidin-1-yl)methyl)-6-fluoro-3-(3-fluorophenyl)-4H-chromen-4-one] came in with a melting point of 127 to 129 °C. The same compound showed an inhibition in data set [2] of 50 to 100%.

As for `Cc1nn(C)c2cc(-c3nn(C(C)c4oc5ccccc5c(=O)c4-c4cccc(F)c4)c4ncnc(N)c34)ccc12` (centres unmarked) [Example 170, 2-(1-(4-amino-3-(1,3-dimethyl-1H-indazol-6-yl)-1H-pyrazolo[3,4-d]pyrimidin-1-yl)ethyl)-3-(3-fluorophenyl)-4H-chromen-4-one], the melting point was 270 to 272 °C. Moreover, in data set [2], the inhibition is 50 to 100%.
